Measurements as given in PubChem BioAssay AID248 (DTP/NCI, 2004).
Several values for one entry are separate records, joined by “and”; a condition that tells them apart may be missing. Equal entries are not always repeated. Toxic doses and inconclusive results are not listed. Rule as the data show it: active = T/C of 150% or more; inactive = T/C below 125%.

Tested on: L1210 leukemia ip in BDF1 mice, survival T/C
Test: NCI In Vivo Anticancer Drug Screen. Data for tumor model L1210 Leukemia (intraperitoneal) in B6D2F1 (BDF1) mice
Settings: endpoint: mean survival time, higher = longer survival
In short: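 Tumor cells were implanted, animals were treated, and survival was followed. The result divides the treated measurement by the vehicle-control measurement.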

[1] = dose: 50.0 mg/kg/injection, schedule: Q01DX009 (ip), vehicle: Klucel (hydroxypropylcellulose) (HPC)
[2] = dose: 100.0 mg/kg/injection, schedule: Q01DX009 (ip), vehicle: Klucel (hydroxypropylcellulose) (HPC)
[3] = dose: 100.0 mg/kg/injection, schedule: Q04DX003 (ip), vehicle: Klucel (hydroxypropylcellulose) (HPC)
[4] = dose: 200.0 mg/kg/injection, schedule: Q01DX009 (ip), vehicle: Klucel (hydroxypropylcellulose) (HPC)
[5] = dose: 200.0 mg/kg/injection, schedule: Q04DX003 (ip), vehicle: Klucel (hydroxypropylcellulose) (HPC)
[6] = dose: 400.0 mg/kg/injection, schedule: Q04DX003 (ip), vehicle: Klucel (hydroxypropylcellulose) (HPC)
[7] = dose: 100.0 mg/kg/injection, schedule: Q01DX001 (ip), vehicle: saline
[8] = dose: 200.0 mg/kg/injection, schedule: Q01DX001 (ip), vehicle: saline
[9] = dose: 400.0 mg/kg/injection, schedule: Q01DX001 (ip), vehicle: saline
[10] = dose: 50.0 mg/kg/injection, schedule: Q01DX001 (ip), vehicle: saline
[11] = dose: 100.0 mg/kg/injection, schedule: Q04DX003 (ip), vehicle: saline with Tween-80
[12] = dose: 200.0 mg/kg/injection, schedule: Q04DX003 (ip), vehicle: saline with Tween-80
[13] = dose: 400.0 mg/kg/injection, schedule: Q04DX003 (ip), vehicle: saline with Tween-80
[14] = dose: 100.0 mg/kg/injection, schedule: Q01DX009 (ip), vehicle: saline with Tween-80

Measured: T/C

NNC(=O)c1ccc(Cl)cc1Nc1ccc(Cl)cc1
inactive: dose: 25.0 mg/kg/injection, schedule: Q01DX009 (ip), vehicle: Klucel (hydroxypropylcellulose) (HPC) 93 % of control | [1] 95 % of control | dose: 100.0 mg/kg/injection, schedule: Q01DX001 (ip), vehicle: Klucel (hydroxypropylcellulose) (HPC) 97 % of control | [2] 91 % of control

O=C(NCCCl)Nc1c2ccccc2nc2ccccc12
inactive: [2] 97 % of control | [3] 103 % of control | [4] 89 % of control | [5] 103 % of control | [6] 104 % of control

O=C(c1ccccc1)C1CNCCC1(O)c1ccccc1 (stereo not given)
inactive: dose: 75.0 mg/kg/injection, schedule: Q01DX001 (ip), vehicle: saline 104 % of control | dose: 75.0 mg/kg/injection, schedule: Q04DX003 (ip), vehicle: acetone 101 % of control | dose: 150.0 mg/kg/injection, schedule: Q01DX001 (ip), vehicle: saline 95 % of control | dose: 150.0 mg/kg/injection, schedule: Q04DX003 (ip), vehicle: acetone 91 % of control | dose: 300.0 mg/kg/injection, schedule: Q01DX001 (ip), vehicle: saline 116 % of control

CCCCCCCC[Si](CCCCCCCC)CCCCCCCC
inactive: dose: 100.0 mg/kg/injection, schedule: Q04DX003 (ip), vehicle: acetone 95 % of control | dose: 200.0 mg/kg/injection, schedule: Q04DX003 (ip), vehicle: acetone 91 % of control | dose: 400.0 mg/kg/injection, schedule: Q04DX003 (ip), vehicle: acetone 98 % of control

O=C(C=C(C(F)(F)F)C(F)(F)F)c1ccc(Br)cc1
inactive: dose: 25.0 mg/kg/injection, schedule: Q04DX003 (ip), vehicle: other 88 % of control | dose: 50.0 mg/kg/injection, schedule: Q04DX003 (ip), vehicle: other 94 % of control

CCCC[S][Pb]([CH2]C)([CH2]C)[CH2]C
inactive: dose: 1.56 mg/kg/injection, schedule: Q01DX009 (sc), vehicle: olive oil, sesame oil, peanut oil 103 % of control | dose: 3.12 mg/kg/injection, schedule: Q01DX009 (sc), vehicle: olive oil, sesame oil, peanut oil 99 % of control | dose: 6.25 mg/kg/injection, schedule: Q01DX009 (sc), vehicle: olive oil, sesame oil, peanut oil 96 % of control and 100 % of control | dose: 12.5 mg/kg/injection, schedule: Q04DX002 (ip), vehicle: saline with Tween-80 111 % of control | dose: 25.0 mg/kg/injection, schedule: Q04DX002 (ip), vehicle: saline with Tween-80 96 % of control

c1ccc(CN2C3c4ccccc4C2c2ccccc23)cc1
inactive: [7] 96 % of control | [8] 112 % of control | [9] 95 % of control

O=C(NCCCl)NC1OC(CO)C(O)C(O)C1O (stereo not given)
inactive: [7] 107 % of control | [8] 101 % of control | [9] 96 % of control

O=c1c2c(=O)c3ccccc3c(=O)c=2c(=O)c2ccccc12
inactive: dose: 100.0 mg/kg/injection, schedule: Q04DX002 (ip), vehicle: Klucel (hydroxypropylcellulose) (HPC) 93 % of control | dose: 200.0 mg/kg/injection, schedule: Q04DX002 (ip), vehicle: Klucel (hydroxypropylcellulose) (HPC) 89 % of control | dose: 400.0 mg/kg/injection, schedule: Q04DX002 (ip), vehicle: Klucel (hydroxypropylcellulose) (HPC) 89 % of control

CN(C(=O)NCCCl)C1CCCCC1
inactive: dose: 75.0 mg/kg/injection, schedule: Q01DX001 (ip), vehicle: carboxymethylcellulose (CMC) 106 % of control

Cn1c(=O)c2[nH]c(C3CCCC3)nc2n(C)c1=O
inactive: [10] 96 % of control | [7] 96 % of control | [8] 96 % of control

CCOC(=O)C1C(=O)C(C(C2C(=O)C(C(=O)OCC)C(c3ccc(O)cc3)C(C(=O)OCC)C2=O)C(O)C(O)C(O)CO)C(=O)C(C(=O)OCC)C1c1ccc(O)cc1 (stereo not given) (tested in a mixture with another compound)
inactive: [1] 101 % of control and 96 % of control | [2] 93 % of control and 96 % of control | [4] 104 % of control and 107 % of control

Cc1cc(N(CCCl)CCCl)ccc1N=Nc1ccccc1C(=O)O
inactive: dose: 3.1 mg/kg/injection, schedule: Q01DX Z (ip), vehicle: carboxymethylcellulose (CMC) 116 % of control | dose: 5.0 mg/kg/injection, schedule: Q01DX010 (ip), vehicle: saline 110 % of control and 111 % of control | dose: 10.0 mg/kg/injection, schedule: Q01DX010 (ip), vehicle: saline 119 % of control and 122 % of control | dose: 18.0 mg/kg/injection, schedule: Q01DX Z (ip), vehicle: carboxymethylcellulose (CMC) 122 % of control | dose: 20.0 mg/kg/injection, schedule: Q01DX010 (ip), vehicle: saline 121 % of control | dose: 25.0 mg/kg/injection, schedule: Q01DX Z (ip), vehicle: carboxymethylcellulose (CMC) 107 % of control | dose: 27.0 mg/kg/injection, schedule: Q01DX Z (ip), vehicle: carboxymethylcellulose (CMC) 114 % of control | dose: 40.0 mg/kg/injection, schedule: Q01DX010 (ip), vehicle: saline 88 % of control | dose: 40.0 mg/kg/injection, schedule: Q01DX Z (ip), vehicle: carboxymethylcellulose (CMC) 86 % of control

S=C(S)NCCNC(=S)S
inactive: [11] 93 % of control | dose: 100.0 mg/kg/injection, schedule: Q04DX003 (ip), vehicle: saline 95 % of control | [12] 90 % of control | dose: 200.0 mg/kg/injection, schedule: Q04DX003 (ip), vehicle: saline 97 % of control | [13] 87 % of control | dose: 400.0 mg/kg/injection, schedule: Q04DX003 (ip), vehicle: saline 101 % of control

Cc1cc(C)c(C(=O)O)c(C)c1
inactive: [7] 100 % of control | [14] 93 % of control | [8] 96 % of control | dose: 200.0 mg/kg/injection, schedule: Q01DX009 (ip), vehicle: saline with Tween-80 94 % of control | [9] 96 % of control | dose: 400.0 mg/kg/injection, schedule: Q01DX009 (ip), vehicle: saline with Tween-80 94 % of control

CC1CN=C(c2ccc(NC(=O)NCCCNC(=O)Nc3ccc(C4=NCC(C)N4)cc3)cc2)N1 (stereo not given)
active: dose: 30.0 mg/kg/injection, schedule: Q01DX015 (ip), vehicle: methylcellulose (MC) 150 % of control

CC1=CC(=O)C=CC1(C)C(Cl)Cl (stereo not given)
inactive: [11] 107 % of control | [12] 100 % of control | [13] 97 % of control

Cc1ccc(O)c(CCCO)c1
inactive: [10] 97 % of control | [7] 105 % of control | [8] 94 % of control

O=c1[nH]c2ccccc2nc1C(Br)Br
inactive: [3] 97 % of control | [5] 105 % of control | [6] 97 % of control

NC(=S)N/N=C/c1cc(-c2cccc(N)c2)ccn1
inactive: dose: 6.25 mg/kg/injection, schedule: Q01DX009 (ip), vehicle: saline with Tween-80 112 % of control | dose: 12.5 mg/kg/injection, schedule: Q01DX009 (ip), vehicle: saline with Tween-80 114 % of control | dose: 25.0 mg/kg/injection, schedule: Q01DX009 (ip), vehicle: saline with Tween-80 114 % of control | dose: 50.0 mg/kg/injection, schedule: Q01DX009 (ip), vehicle: saline with Tween-80 111 % of control | [14] 114 % of control

CCC(=O)OC(CC=C(C)C)(c1ccccc1)C(C)CN(C)C (stereo not given)
inactive: dose: 100.0 mg/kg/injection, schedule: Q01DX009 (ip), vehicle: saline 100 % of control

C[PH+](c1ccccc1)c1ccccc1.C[PH+](c1ccccc1)c1ccccc1.[Cl][Pd][Cl]
inactive: dose: 75.0 mg/kg/injection, schedule: Q04DX003 (ip), vehicle: saline 112 % of control | dose: 150.0 mg/kg/injection, schedule: Q04DX003 (ip), vehicle: saline 107 % of control | dose: 300.0 mg/kg/injection, schedule: Q04DX003 (ip), vehicle: saline 104 % of control
